The results in this text go back to US20240174618A1, “SUBSTITUTED (2-HETEROARYLOXYPHENYL)SULFONATES, SALTS THEREOF AND THEIR USE AS HERBICIDAL AGENTS” (Bayer Aktiengesellschaft, priority 2021, published 2024).

Common to all, as to format: in vivo
In test [1] the test system is Digitaria sanguinalis (DIGSA). Briefly: A. Herbicidal pre-emergence efficacy, DIGSA. To be noted: scored visually after about 3 weeks vs untreated controls. Summed up: (§1)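 Pre-emergence soil-surface spray in sandy loam pots, WP/EC in water plus 0.5% additive, 600 L/ha. Visual % damage rating after about 3 weeks in greenhouse vs. untreated; 0% = control-like, 100% = dead plants. Rates up to 1280 g/ha.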

Test [2] concerns Matricaria inodora (MATIN). Kind of test: A. Herbicidal pre-emergence efficacy, MATIN. Summed up: as §1
Test [3] deals with Kochia scoparia (KCHSC). Kind of test: E. Herbicidal post-emergence efficacy, KCHSC. Summed up: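 Greenhouse weeds were treated post-emergence at the one-leaf stage, 2-3 weeks after sowing in sandy loam, with WP or EC formulations sprayed as aqueous suspension/emulsion plus 0.5% additive at 600 l/ha, at 320 g/ha or less. Efficacy was rated visually after about 3 weeks versus untreated controls (100% = dead, 0% = like control).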

The subject of test [4] is Kochia scoparia (KCHSC). Kind of test: B. Herbicidal post-emergence efficacy, KCHSC. The settings on record: for Post-emergence efficacy against KCHSC in %: rated visually after about 3 weeks; for Post-emergence efficacy against KCHSC: 1280 g/ha. Put shortly:
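Visual percent efficacy relative to untreated controls (0% unaffected, 100% dead), scored roughly 3 weeks after foliar spraying of one-leaf-stage pot-grown plants with WP or EC preparations at application rates up to 1280 g/ha in 600 L/ha water containing 0.5% additive.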

Test [5] has as its system Lolium rigidum (LOLRI). Briefly: C. Herbicidal pre-emergence efficacy, LOLRI. The settings on record: scored after about 3 weeks. Put shortly: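 Pre-emergence test: formulated compounds sprayed as aqueous suspension or emulsion with 0.5% additive at 600 l/ha onto soil covering sown seeds, at rates corresponding to 320 g/ha or less. After about 3 weeks in greenhouse, efficacy scored visually as percent versus untreated controls (100% = plants dead).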

Test [6] concerns Amaranthus retroflexus (AMARE). Kind of test: A. Herbicidal pre-emergence efficacy, AMARE. Put shortly:
as §1

In test [7] the test system is Lolium rigidum (LOLRI). Briefly: A. Herbicidal pre-emergence efficacy, LOLRI. Summed up:
as §1

Test [8] concerns Alopecurus myosuroides (ALOMY). Kind of test: A. Herbicidal pre-emergence efficacy, ALOMY. To be noted: scored visually after about 3 weeks vs untreated controls. Summed up:
as §1

The mark [9] stands for this setting: pre-emergence, dosage 1280 g/ha.

With `O=S(=O)(CCCC(F)(F)F)Oc1c(F)cccc1Oc1ncc(Cl)cn1` [Example I-49], the “Pre-emergence efficacy against DIGSA” value in test [1] (80 g/ha), in test [1] (320 g/ha) and in test [1] (1280 g/ha) was 90% each time. Further, the “Pre-emergence efficacy against MATIN” value in test [2] (320 g/ha, scored visually after about 3 weeks vs untreated controls) was found to be 100%; in test [2] (setting [9]), 100%. Moreover, the “Post-emergence efficacy against KCHSC in %” value in the test with Kochia scoparia (KCHSC) [3] (application rate 80 g/ha) was found to be 100%; with Kochia scoparia (KCHSC) [3] (application rate 320 g/ha) it was 100%; with Kochia scoparia (KCHSC) [4] (80 g/ha) it was 90%; in the test with Kochia scoparia (KCHSC) [4] (320 g/ha), 90%. Moreover, in the test with Kochia scoparia (KCHSC) [4], the “Post-emergence efficacy against KCHSC” value was 100%. Moreover, the “Pre-emergence efficacy against LOLRI” value in the test with Lolium rigidum (LOLRI) [5] (80 g/ha) is listed as 80%; in the test with Lolium rigidum (LOLRI) [5] (320 g/ha) it was 90%; in the test with Lolium rigidum (LOLRI) [7] (dosage 320 g/ha), 90%; in the test on Lolium rigidum (LOLRI) [7] (dosage 1280 g/ha) it was 90%. For the same compound, the “Pre-emergence efficacy against AMARE in %” value in test [6] (80 g/ha) was 90%; in test [6] (320 g/ha), 100%; in test [6] (1280 g/ha), 100%. Also, in test [8] (1280 g/ha), the “Pre-emergence efficacy against ALOMY” value is 90%.
Turning to `O=S(=O)(CC1CC(F)(F)C1)Oc1c(F)cccc1Oc1ncc(Cl)cn1` [Example I-53], the “Pre-emergence efficacy against DIGSA” value in test [1] (80 g/ha), in test [1] (320 g/ha) and in test [1] (1280 g/ha) was 100% each time. In addition, in test [2] (setting [9]), the “Pre-emergence efficacy against MATIN” value came out at 100%. Also, the “Post-emergence efficacy against KCHSC in %” value in the test with Kochia scoparia (KCHSC) [3] (application rate 80 g/ha), in the test on Kochia scoparia (KCHSC) [3] (application rate 320 g/ha), in the test with Kochia scoparia (KCHSC) [4] (80 g/ha) and in the test on Kochia scoparia (KCHSC) [4] (320 g/ha) was 90% in each case. Also, the “Post-emergence efficacy against KCHSC” value in the test on Kochia scoparia (KCHSC) [4] is listed as 90%. Also, the results for the “Pre-emergence efficacy against LOLRI” value in the test on Lolium rigidum (LOLRI) [5] (320 g/ha), in the test with Lolium rigidum (LOLRI) [7] (dosage 320 g/ha) and in the test with Lolium rigidum (LOLRI) [7] (dosage 1280 g/ha) were 100%, 90% and 100%, respectively. Also, the “Pre-emergence efficacy against AMARE in %” value in test [6] (80 g/ha), in test [6] (320 g/ha) and in test [6] (1280 g/ha) was 100% each time. The “Pre-emergence efficacy against ALOMY” value in test [8] (1280 g/ha) is reported as 100%.
`O=S(=O)(CCCC(F)F)Oc1c(F)cccc1Oc1ncc(Cl)cn1` [Example I-56]: the “Pre-emergence efficacy against DIGSA” value in test [1] (80 g/ha), in test [1] (320 g/ha) and in test [1] (1280 g/ha) was 100% in each case. The “Pre-emergence efficacy against MATIN” value in test [2] (setting [9]) is recorded as 100%. Further, the “Post-emergence efficacy against KCHSC in %” value in the test on Kochia scoparia (KCHSC) [3] (application rate 80 g/ha) is listed as 100%; in the test with Kochia scoparia (KCHSC) [3] (application rate 320 g/ha), 100%; in the test on Kochia scoparia (KCHSC) [4] (80 g/ha), 90%; in the test on Kochia scoparia (KCHSC) [4] (320 g/ha), 90%. Also, the “Post-emergence efficacy against KCHSC” value in the test on Kochia scoparia (KCHSC) [4] turned out to be 90%. Moreover, the “Pre-emergence efficacy against LOLRI” value with Lolium rigidum (LOLRI) [5] (80 g/ha), in the test with Lolium rigidum (LOLRI) [5] (320 g/ha), with Lolium rigidum (LOLRI) [7] (dosage 320 g/ha) and with Lolium rigidum (LOLRI) [7] (dosage 1280 g/ha) was 100% each time. Besides, the “Pre-emergence efficacy against AMARE in %” value in test [6] (80 g/ha), in test [6] (320 g/ha) and in test [6] (1280 g/ha) was 100% each time. Besides, the “Pre-emergence efficacy against ALOMY” value is given as 90% in test [8] (320 g/ha) and 100% in test [8] (1280 g/ha).
